The text below walks through data of US20260091043A1, “COMPOSITIONS AND METHODS FOR TREATING MYCOBACTERIUM INFECTIONS” (DATA2DISCOVERY, INC., priority 2022, published 2026).

Read-outs that look alike come from different tables or passages of the source.

In assay [1] the test system is M. tuberculosis (H37RV strain). The assay is described as follows: M. tuberculosis (H37RV strain) resazurin growth inhibition assay. The class given is cell-based, Mycobacterium tuberculosis. Conditions: for IC50 / IC90: Mycobacterium tuberculosis; for activity against M. tuberculosis (in words): summary of table results.
Assay [2] deals with M. abscessus (ATCC Smooth strain). The assay is described as follows: M. abscessus (ATCC Smooth strain) resazurin growth inhibition assay. The class given is cell-based, Mycobacterium abscessus. Conditions: for IC50 / IC90: Mycobacteroides abscessus; for activity against M. abscessus (in words): summary of table results.
Setting [3] is: M. tuberculosis H37RV, 96 well plate, 37° C. 4 days, resazurin, read 3 days later, read-out: IC50.
[4] abbreviates: M. tuberculosis H37RV, 96 well plate, 37° C. 4 days, resazurin, read 3 days later, read-out: IC90.
The mark [5] stands for this setting: M. abscessus ATCC Smooth, 96 well plate, 37° C. 4 days, resazurin, read after 1 day, read-out: IC50.
Where [6] appears, read: M. abscessus ATCC Smooth, 96 well plate, 37° C. 4 days, resazurin, read after 1 day, read-out: IC90.

For orientation: IC50 means the concentration that inhibits the measured activity by half. One may read the IC90 as the concentration needed for an effect of 90%. In assay [1] (H37RV), `O=C(Nc1ccc(Br)cc1)c1cc(Br)cc(Br)c1O` [Tribromsalan, 3,5,4′-tribromosalicylanilide] came in with an IC50 of 67.2 µM and an IC90 of 76.9 µM. In addition, the “activity against M. tuberculosis (in words)” value in assay [1] is listed as “significant activity”. Also, in assay [2], the half-maximal inhibitory concentration (IC50) came out at 99.8 µM, the IC90 came to 147 µM and the “activity against M. abscessus (in words)” value is listed as “significant activity”.

With `NC[C@H]1O[C@H](O[C@H]2[C@H](O)[C@@H](O[C@H]3O[C@H](CO)[C@@H](O)[C@H](N)[C@H]3O)[C@H](N)C[C@@H]2N)[C@H](O)[C@@H](O)[C@@H]1O` [Kanamycin], the figures for the concentration for half-maximal inhibition (IC50) in assay [1] (setting [3]) and in assay [2] (setting [5]) were 1.06 µM and 12.1 µM, respectively. Further, the IC90 came to 4.22 µM in assay [1] (setting [4]) and 16.1 µM in assay [2] (setting [6]).

On to `NCC[C@H](O)C(=O)N[C@@H]1C[C@H](N)[C@@H](O[C@H]2O[C@H](CN)[C@@H](O)[C@H](O)[C@H]2O)[C@H](O)[C@H]1O[C@H]1O[C@H](CO)[C@@H](O)[C@H](N)[C@H]1O` [Amikacin], for which the IC50 in assay [2] (setting [5]) is 4.78 µM. In assay [2] (setting [6]), the IC90 came out at 7.15 µM.

Turning to `O=C(Nc1ccc([N+](=O)[O-])cc1Cl)c1cc(Cl)ccc1O` [Niclosamide, niclosamide], the figures for the IC50 in assay [1] (setting [3]) and in assay [2] (setting [5]) were 1.92 µM and 32.2 µM, respectively. Further, the IC90 in assay [1] (setting [4]) is 2.95 µM; in assay [2] (setting [6]), 59.1 µM. Moreover, the “activity against M. tuberculosis compared to kanamycin (in words)” value in assay [1] (comparison with control kanamycin) is reported as “superior overall to kanamycin”. In assay [1], the “activity against M. tuberculosis (in words)” value was “significant activity”. Also, the “activity against M. abscessus (in words)” value in assay [2] was “significant activity”.
